{"source": "paper PMC10791743", "about": "“Selective CK1α degraders exert antiproliferative activity against a broad range of human cancer cell lines” (Nature Communications, 2024)", "key": {"MOLM-13 cells": {"tested_on": "MOLM-13 cells", "assay": "Annexin-V staining for apoptosis, wild type MOLM-13", "assay_type": "cell-based, human", "details": "for total apoptosis, flow cytometry: MOLM-13; for Late apoptosis, flow cytometry / Early apoptosis, flow cytometry: WT", "protocol": "Wild type and CRBN^−/− MOLM-13 cells were grown in 12-well plates (TPP, Techno Plastic Products AG) with 500,000 cells per well in 2 ml total media volume. Cells were treated with 1 μl/ml DMSO or 1 μM compound in triplicate, and incubated for 24 or 72 h at 37 °C. To prepare samples, this buffer was used: 10 mM HEPES, 0.14 M NaCl, 2.5 mM CaCl2 pH 7.4, 2% v/v FBS in UltraPure water (Invitrogen). After incubation, samples were collected in 5-ml tubes for flow cytometry (Falcon). Single-stain controls consisted of ~150 μl of multiple samples combined. Wells were washed with 1 ml of buffer that was added to the corresponding sample tube. Cells were centrifuged at 500×g for 5 min at 4 °C to form a pellet. Supernatant was decanted and cells were washed again with 3 ml of buffer, then centrifuged. After decanting the supernatant, 3 μl of APC-conjugated anti-Annexin-V antibody (BioLegend) was added to each tube in the residual buffer left behind. Samples were mixed by vortex and incubated at room temperature in the dark for 20 min. Samples were then washed and centrifuged a final time, decanting the supernatant and blotting the tubes to remove residual buffer. 50 μl of buffer with DAPI was added to all appropriate samples and mixed, then analyzed by flow cytometry.\nSupplementary Fig. 13: Gating for Annexin V flow cytometry analysis. Total cells were gated to remove cell debris, followed by single cell gating on the FSC-A/FSC-H diagonal. Within the single […]\nLive cells are negative for both fluorescent markers, DAPI positive/APC negative cells are necrotic, APC positive/DAPI negative cells are still alive but in the early stages of apoptosis, and double positive cells are dead via apoptosis. Percentages of early and late apoptosis were plotted in supplementary figures 4 and 5.\n(1 picture or pasted object on this page, not shown here)"}, "p21": {"tested_on": "p21", "assay": "p21 immunoblotting in MOLM-13 cells", "assay_type": "cell-based, human", "details": "for p21 quantified protein expression (western blot): 3 western blots"}, "CRBN−/− MOLM-13 cells": {"tested_on": "CRBN−/− MOLM-13 cells", "assay": "Wild type versus CRBN−/− MOLM-13 cells (viability, CRBN dependence)", "assay_type": "cell-based, human", "design": "key to cell viability, dose-response replicate values: % viability = 100 − % activity (RLU normalized to negative control)", "details": "for cell viability, dose-response replicate values: MOLM-13 CRBN KO", "from_the_text": "Having identified SJ7095 as a compound with a potent antiproliferative effect in MOLM-13 cells, we next examined whether the observed effect was CRBN-dependent. […] In an orthogonal approach, we tested SJ7095 in wild-type and CRBN-knockout MOLM-13 cells in a cell viability assay (Supplementary Fig. 1b).\nCRBN^−/− MOLM-13 cells were created using CRISPR-Cas9 technology. Briefly, 1 million MOLM-13 cells were transiently transfected with precomplexed ribonuclear proteins (RNPs) consisting of 400 pmol of chemically modified sgRNA (Synthego), 135pmol of SpCas9 protein (St. Jude Protein Production Core), and 500 ng of pMaxGFP (Lonza) via nucleofection (Lonza, 4D-Nucleofector™ X-unit) using solution SF and program EO100 in a 100 µl cuvette according to the manufacturer’s recommended protocol. Transfected cells (GFP+) were single-cell sorted by flow cytometry (St. Jude Flow Cytometry and Cell Sorting Shared Resource) into 96-well tissue culture-treated plates 5 days post nucleofection. Cells were clonally expanded and screened for the desired targeted modification (out-of-frame indels) via targeted deep sequencing using gene-specific primers with partial Illumina adapter overhangs as previously described. Genotyping of clones was performed using CRIS.py[59]. Knockout clones were identified as clones containing only out-of-frame indels. PowerPlex® Fusion System (Promega) was used to confirm final clone identification (Hartwell Center for Biotechnology at St. Jude). All clones tested negative for mycoplasma by the MycoAlert^TMPlus Mycoplasma Detection Kit (Lonza). CRBN knockout confirmed by immunoblot (Supplementary Material).\nMOLM-13 cells were plated in Corning 8804BC white 384-well assay plates at the appropriate cell number per well and incubated overnight at 37 °C in a humidified 5 % CO2 incubator. Compounds were transferred to the assay plate from a dose-response plate using a Labcyte Echo 650 Acoustic Liquid Handler (Beckman Coulter , USA). Cytotoxicity was determined following 72 h of incubation using Promega’s CellTiter-Glo reagent according to the manufacturer’s recommendation.\nLuminescence was measured on the Envision plate reader (PerkinElmer, USA). Raw luminescence relative light unit (RLU) values for each compound at each concentration were normalized to obtain % activity using the following equation (1): 100 × [(mean(negctrl) – compound)/(mean (negctrl) – mean (posctrl))]. The % activity was converted to % viability using the following equation (2):\n(100 – % activity), and then pooled from replicate experiments prior to fitting. Here, negctrl and posctrl refer to the negative (DMSO) and positive controls (staurosporine) on each plate. Dose-response curves were fit to the Hill equation using the GraphPad Prism (version 10). […]"}, "CRBN": {"molecular_target": "T1, CRBN (Homo sapiens, UniProt Q96SW2)", "T1 construct": "6XHis (N)", "T1 sequence (Q96SW2 whole entry)": "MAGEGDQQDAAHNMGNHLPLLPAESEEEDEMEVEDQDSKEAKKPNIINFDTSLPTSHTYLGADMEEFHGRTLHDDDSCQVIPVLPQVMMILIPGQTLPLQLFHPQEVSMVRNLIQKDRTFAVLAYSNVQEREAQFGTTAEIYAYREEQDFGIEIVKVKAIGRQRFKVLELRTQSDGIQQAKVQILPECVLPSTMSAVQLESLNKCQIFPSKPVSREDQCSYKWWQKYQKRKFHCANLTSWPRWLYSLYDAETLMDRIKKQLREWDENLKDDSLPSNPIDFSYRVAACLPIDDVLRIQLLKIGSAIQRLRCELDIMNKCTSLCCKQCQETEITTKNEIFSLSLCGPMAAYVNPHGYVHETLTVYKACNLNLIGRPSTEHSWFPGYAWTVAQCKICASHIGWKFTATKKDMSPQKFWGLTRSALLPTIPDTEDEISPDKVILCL", "T1 sequence (Q16531 whole entry partner)": "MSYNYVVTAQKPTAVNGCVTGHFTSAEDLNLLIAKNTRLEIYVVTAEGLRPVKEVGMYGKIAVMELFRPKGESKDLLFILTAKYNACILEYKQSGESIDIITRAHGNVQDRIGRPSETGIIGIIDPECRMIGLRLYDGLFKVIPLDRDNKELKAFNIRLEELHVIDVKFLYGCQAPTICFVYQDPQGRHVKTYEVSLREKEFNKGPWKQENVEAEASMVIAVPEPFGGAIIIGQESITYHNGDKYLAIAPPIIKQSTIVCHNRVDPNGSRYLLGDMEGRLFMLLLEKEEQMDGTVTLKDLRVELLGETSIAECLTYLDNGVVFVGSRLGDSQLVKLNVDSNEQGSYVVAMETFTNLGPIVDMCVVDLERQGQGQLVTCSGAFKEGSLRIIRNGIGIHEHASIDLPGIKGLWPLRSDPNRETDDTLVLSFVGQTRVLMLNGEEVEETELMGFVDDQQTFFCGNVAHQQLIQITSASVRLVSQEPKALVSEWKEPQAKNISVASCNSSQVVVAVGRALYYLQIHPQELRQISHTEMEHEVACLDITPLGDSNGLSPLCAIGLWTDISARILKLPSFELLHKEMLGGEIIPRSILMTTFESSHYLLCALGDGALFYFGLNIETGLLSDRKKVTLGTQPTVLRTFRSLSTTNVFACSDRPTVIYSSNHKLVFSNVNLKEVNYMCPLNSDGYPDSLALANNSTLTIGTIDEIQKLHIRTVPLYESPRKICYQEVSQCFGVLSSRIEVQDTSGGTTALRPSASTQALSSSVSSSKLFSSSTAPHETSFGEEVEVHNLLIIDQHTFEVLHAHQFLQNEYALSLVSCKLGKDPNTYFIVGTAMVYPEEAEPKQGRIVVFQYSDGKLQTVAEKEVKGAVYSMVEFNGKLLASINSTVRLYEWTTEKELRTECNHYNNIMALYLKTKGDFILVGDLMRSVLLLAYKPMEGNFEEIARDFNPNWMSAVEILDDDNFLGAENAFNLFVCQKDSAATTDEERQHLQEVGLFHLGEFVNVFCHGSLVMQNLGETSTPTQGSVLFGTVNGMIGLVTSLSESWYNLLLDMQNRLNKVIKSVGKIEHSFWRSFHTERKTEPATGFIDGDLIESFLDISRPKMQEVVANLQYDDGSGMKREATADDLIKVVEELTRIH", "assay": "CRBN fluorescence polarization (FP) displacement assay", "assay_type": "binding", "design": "key: % activity normalized to DMSO (0) and CC-220 (100) controls", "protocol": "The assay cocktail was prepared by combining 6XHis-CRBN-DDB1 protein (200 nM) and Cy5-O-Len probe (30 nM) in 20 mM HEPES pH 7, 150 mM NaCl, 0.005% Tween-20 assay buffer. […] Then 20 μL of the assay cocktail was dispensed to wells of the assay plate with a Multidrop Combi Reagent Dispenser (Thermo Fisher Scientific, USA). The plates were incubated in the dark for 1 h at room temperature and then read on an Envision plate reader (Perkin Elmer, USA). Raw intensity values for each compound at each concentration were normalized to obtain % activity using the following equation: 100×[(mean(negctrl)–compound)/(mean (negctrl)–mean (posctrl))], and then pooled from replicate experiments prior to fitting. Here, negctrl and posctrl refer to the negative (DMSO) and positive controls (CC-220) on each plate. Dose-response curves were fit to the Hill equation using the GraphPad Prism (version 10)."}, "[1]": {"details": "time course 0-8 hrs, relative to no treatment"}}, "note": "Values joined by “and” are separate entries in the source; they are usually repeats but may differ in a detail not shown here. Identical values can stand only once. “Also recorded” adds a separate entry of the source.", "data": [{"smiles": "O=C1CCC(N2Cc3cc(Nc4noc5ccccc45)ccc3C2=O)C(=O)N1", "note": "(stereo not shown) [SJ3149]", "values": [{"measurement": "Cells dead or dying (annexin-V)", "setting": "MOLM-13 cells; 1 μM, 72 h", "value": "~ 80%"}, {"measurement": "Treatment-induced cell death (annexin-V)", "setting": "MOLM-13 cells; 1 μM, 72 h, vs DMSO", "value": "increased cell death"}, {"measurement": "total apoptosis, flow cytometry", "setting": "MOLM-13 cells; SI_Fig 4c, DMSO 9.7, 8.6, 9.8", "value": "30.6 and 31.3 and 31.4"}, {"measurement": "total apoptosis, flow cytometry", "setting": "MOLM-13 cells; SI_Fig 5c, DMSO 8, 7.6, 6.1", "value": "81.1 and 51.1 and 84.7"}, {"measurement": "Late apoptosis, flow cytometry", "setting": "MOLM-13 cells; SI_Fig 4b, DMSO 3, 2.7, 3", "value": "8.5 and 9.4 and 9.1"}, {"measurement": "Early apoptosis, flow cytometry", "setting": "MOLM-13 cells; SI_Fig 4b, DMSO 6.8, 5.8, 6.8", "value": "22.2 and 21.9 and 22.3"}, {"measurement": "Late apoptosis, flow cytometry", "setting": "MOLM-13 cells; SI_Fig 5b, DMSO 1.5, 1.2, 1.2", "value": "37.1 and 24.3 and 39.1"}, {"measurement": "Early apoptosis, flow cytometry", "setting": "MOLM-13 cells; SI_Fig 5b, DMSO 6.5, 6.4, 4.9", "value": "44 and 26.8 and 45.7"}, {"measurement": "p21 induction, time course", "setting": "p21; MOLM-13, 1 μM, 0-8 h", "value": "not present until 4 h; also recorded: does not occur until after 4 hours"}, {"measurement": "p21 quantified protein expression (western blot)", "setting": "p21; time 1 hr, relative to no treatment", "value": "0.8518 and 1.28 and 0.8338"}, {"measurement": "p21 quantified protein expression (western blot)", "setting": "p21; time 2 hrs, relative to no treatment", "value": "1.31 and 1.5551 and 1.213"}, {"measurement": "p21 quantified protein expression (western blot)", "setting": "p21; time 4 hrs, relative to no treatment", "value": "4.341 and 2.673 and 4.158"}, {"measurement": "p21 quantified protein expression (western blot)", "setting": "p21; time 8 hrs, relative to no treatment", "value": "4.765 and 2.907 and 5.628"}, {"measurement": "IC50 (line fit, sigmoidal 4PL) of p21 expression versus time", "setting": "p21; time course 0-8 hrs, X axis is time", "value": 3.071}, {"measurement": "Bottom (line fit, sigmoidal 4PL) of p21 expression versus time", "setting": "p21; [1]", "value": 0.988}, {"measurement": "Top (line fit, sigmoidal 4PL) of p21 expression versus time", "setting": "p21; [1]", "value": 4.463}, {"measurement": "viability at 0.000508 µM", "setting": "CRBN−/− MOLM-13 cells; Homo sapiens, MOLM-13, MOLM-13 CRBN KO, Conc 0.000508 uM, read-out: cell viability, dose-response replicate values", "value": 113, "unit": "%"}, {"measurement": "viability at 0.00152416 µM", "setting": "CRBN−/− MOLM-13 cells; Homo sapiens, MOLM-13, MOLM-13 CRBN KO, Conc 0.00152416 uM, read-out: cell viability, dose-response replicate values", "value": 116, "unit": "%"}, {"measurement": "viability at 0.00457247 µM", "setting": "CRBN−/− MOLM-13 cells; Homo sapiens, MOLM-13, MOLM-13 CRBN KO, Conc 0.00457247 uM, read-out: cell viability, dose-response replicate values", "value": 120, "unit": "%"}, {"measurement": "viability at 0.0137174 µM", "setting": "CRBN−/− MOLM-13 cells; Homo sapiens, MOLM-13, MOLM-13 CRBN KO, Conc 0.0137174 uM, read-out: cell viability, dose-response replicate values", "value": 115, "unit": "%"}, {"measurement": "viability at 0.0411523 µM", "setting": "CRBN−/− MOLM-13 cells; Homo sapiens, MOLM-13, MOLM-13 CRBN KO, Conc 0.0411523 uM, read-out: cell viability, dose-response replicate values", "value": 116, "unit": "%"}, {"measurement": "viability at 0.123457 µM", "setting": "CRBN−/− MOLM-13 cells; Homo sapiens, MOLM-13, MOLM-13 CRBN KO, Conc 0.123457 uM, read-out: cell viability, dose-response replicate values", "value": 113, "unit": "%"}, {"measurement": "viability at 0.37037 µM", "setting": "CRBN−/− MOLM-13 cells; Homo sapiens, MOLM-13, MOLM-13 CRBN KO, Conc 0.37037 uM, read-out: cell viability, dose-response replicate values", "value": 118, "unit": "%"}, {"measurement": "viability at 10 µM", "setting": "CRBN−/− MOLM-13 cells; Homo sapiens, MOLM-13, MOLM-13 CRBN KO, Conc 10 uM, read-out: cell viability, dose-response replicate values", "value": 80.2, "unit": "%"}, {"measurement": "cell viability, dose-response replicate values", "setting": "CRBN−/− MOLM-13 cells; Conc 0.000508 uM", "value": "112.4 and 118.871"}, {"measurement": "cell viability, dose-response replicate values", "setting": "CRBN−/− MOLM-13 cells; Conc 0.00152416 uM", "value": "110.951 and 120.77"}, {"measurement": "cell viability, dose-response replicate values", "setting": "CRBN−/− MOLM-13 cells; Conc 0.00457247 uM", "value": "113.675 and 126.396"}, {"measurement": "cell viability, dose-response replicate values", "setting": "CRBN−/− MOLM-13 cells; Conc 0.0137174 uM", "value": "112.684 and 118.779"}, {"measurement": "cell viability, dose-response replicate values", "setting": "CRBN−/− MOLM-13 cells; Conc 0.0411523 uM", "value": "113.146 and 122.731"}, {"measurement": "cell viability, dose-response replicate values", "setting": "CRBN−/− MOLM-13 cells; Conc 0.123457 uM", "value": "114.423 and 122.764"}, {"measurement": "cell viability, dose-response replicate values", "setting": "CRBN−/− MOLM-13 cells; Conc 0.37037 uM", "value": "115.466 and 130.548"}, {"measurement": "cell viability, dose-response replicate values", "setting": "CRBN−/− MOLM-13 cells; Conc 1.11111 uM", "value": "110.229 and 104.531 and 126.2"}, {"measurement": "cell viability, dose-response replicate values", "setting": "CRBN−/− MOLM-13 cells; Conc 3.33333 uM", "value": "104.594 and 98.0101 and 119.909"}, {"measurement": "cell viability, dose-response replicate values", "setting": "CRBN−/− MOLM-13 cells; Conc 10 uM", "value": "76.5849 and 88.9707"}, {"measurement": "CRBN binding FP, Activity", "setting": "CRBN; SJ3149, [Compound] 0.25625 mM", "value": "17.1311 and 16.8724 and 13.6243"}, {"measurement": "CRBN binding FP, Activity", "setting": "CRBN; SJ3149, [Compound] 0.76875 mM", "value": "34.3137 and 35.3073 and 29.4577"}, {"measurement": "CRBN binding FP, Activity", "setting": "CRBN; SJ3149, [Compound] 2.31250 mM", "value": "56.4886 and 56.6964 and 54.8148"}, {"measurement": "CRBN binding FP, Activity", "setting": "CRBN; SJ3149, [Compound] 6.93750 mM", "value": "75.4128 and 74.3041 and 71.3624"}, {"measurement": "CRBN binding FP, Activity", "setting": "CRBN; SJ3149, [Compound] 20.81250 mM", "value": "81.1017 and 84.4669 and 74.3386"}, {"measurement": "CRBN binding FP, Activity", "setting": "CRBN; SJ3149, [Compound] 62.50000 mM", "value": "71.4654 and 75.3676 and 66.9577"}]}]}
